We go through one compound from PMC12777510 (Chempluschem, 2025).

Values after ≈ are worked out from the molar mass of the structure shown. *1 amine or outer side, *2 acyl side, *3 side chain or, on linkers, in order; H or OH if unused. Where a SMILES comes first, the peptide text is derived from it. [ ]: non-standard residue; d: D form. X1 = O=C(C[C@@H](CCCCCCCCCCC(F)(F)F)N[*:1])[*:2]

The conditions of this data set: 19F NMR samples in D2O containing Saboraud Dextrose Broth (30 g/L), 5% d6-DMSO added to avoid precipitation.

Regarding `NC(=O)CC[C@@H]1NC(=O)[C@@H](CC(N)=O)NC(=O)[C@@H](Cc2ccc(O)cc2)NC(=O)[C@H](CC(N)=O)NC(=O)C[C@@H](CCCCCCCCCCC(F)(F)F)NC(=O)[C@H](CO)NC(=O)[C@@H](CC(N)=O)NC(=O)[C@@H]2CCCN2C1=O` [Compound 9, ω‐CF3 iturin A2] (cyclo(N[dY][dN]QP[dN]S[X1])), the aqueous solubility stood at 100 µM (≈ 110 µg/mL).

A word on the aqueous solubility: it is the dissolved amount per volume that the medium holds. A high value points to much dissolved substance.
